Paper PMC4503722, “Novel Phenotypic Outcomes Identified for a Public Collection of Approved Drugs from a Publicly Accessible Panel of Assays” (PLoS ONE, 2015)
Like-named read-outs stand apart in the source and are kept apart here.

Key:
[1] = tested on: ECFC/ADSC co-culture cell nuclei number; conditions: for IC50: read-out: VEGF_ADSC\ECFC Angio Hoechst NucArea summarized IC50
[2] = tested on: endothelial tube formation in co-cultures of ECFCs and ADSCs treated with VEGF; assay: cells; assay type: cell-based, human; conditions: for IC50: read-out: VEGF_ADSC\ECFC Angio CD31 TubeArea summarized IC50
HeLa cells = assay: cells; assay type: cell-based;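 for Hela CellCycMod PI 4N summarized IC50: value tracks stimulation of 4N DNA content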

| SMILES | VEGF_ADSC\ECFC Angio Hoechst NucArea IC50/EC50 [1] | VEGF_ADSC\ECFC Angio CD31 TubeArea IC50/EC50 [2] | IC50 [1] | IC50 [2] | also measured |
| --- | --- | --- | --- | --- | --- |
| C#C[C@]1(OC(C)=O)CC[C@H]2[C@@H]3CCC4=CC(=NO)CC[C@@H]4[C@H]3CC[C@@]21CC (mixture of isomers) [NCGC00344561-01] | > 10 µM | > 10 µM |  |  |  |
| CC(C)c1c(C(=O)Nc2ccccc2)c(-c2ccccc2)c(-c2ccc(F)cc2)n1CC[C@@H](O)C[C@@H](O)CC(=O)O [Atorvastatin, reference compound] |  |  |  |  | inhibition of endothelial tube / cord formation (in words) [2]: did not inhibit endothelial tube formation |
| CN(C)CCCN1c2ccccc2Sc2ccc(Cl)cc21 [NCGC00015273-19] |  |  | > 10 µM | > 10 µM |  |
| O=C1NCN(c2ccccc2)C12CCN(CCCC(c1ccc(F)cc1)c1ccc(F)cc1)CC2 [NCGC00015424-11] |  |  |  |  | IC50/EC50, VEGF_ADSC\ECFC Angio Hoechst NucArea (assay number 3) [1]: 8.086 µM; IC50/EC50, VEGF_ADSC\ECFC Angio CD31 TubeArea (assay number 2) [2]: > 10 µM |
| OCCN1CCN(CCCN2c3ccccc3Sc3ccc(C(F)(F)F)cc32)CC1 [NCGC00015436-11] | > 10 µM | > 10 µM |  |  |  |
| O=c1c(-c2ccc(O)cc2)coc2cc(O)cc(O)c12 [NCGC00015479-19] |  |  |  |  | IC50/EC50, VEGF_ADSC\ECFC Angio Hoechst NucArea (assay number 3) [1]: > 10 µM; IC50/EC50, VEGF_ADSC\ECFC Angio CD31 TubeArea (assay number 2) [2]: > 10 µM |
| Oc1ccc(O)cc1 [NCGC00015523-13] |  |  | > 10 µM | > 10 µM |  |
| CN(C)C(=O)Oc1cccc([N+](C)(C)C)c1.[Br-] [NCGC00015730-11] | > 10 µM | > 10 µM |  |  |  |
| OCCN1CCN(CCCN2c3ccccc3Sc3ccc(Cl)cc32)CC1 [NCGC00015826-13] |  |  | > 10 µM | > 10 µM |  |
| Cn1ccc2cc3c(cc21)CCN3C(=O)Nc1cccnc1 [NCGC00015917-06] |  |  |  |  | IC50/EC50, VEGF_ADSC\ECFC Angio Hoechst NucArea (assay number 3) [1]: > 10 µM; IC50/EC50, VEGF_ADSC\ECFC Angio CD31 TubeArea (assay number 2) [2]: > 10 µM |
| CC(C)(C)CC(C)(C)c1ccc(OCCOCC[N+](C)(C)Cc2ccccc2)cc1 [NCGC00016373-08] |  |  |  | 3.74 µM |  |
| Cc1cccc(C)c1NC(=O)CN1CCN(CCCC(c2ccc(F)cc2)c2ccc(F)cc2)CC1 [NCGC00016627-04] |  |  |  |  | IC50/EC50, VEGF_ADSC\ECFC Angio Hoechst NucArea (assay number 3) [1]: 9.37 µM; IC50/EC50, VEGF_ADSC\ECFC Angio CD31 TubeArea (assay number 2) [2]: > 10 µM |
| CN1CCC[C@@H]1CCO[C@](C)(c1ccccc1)c1ccc(Cl)cc1.O=C(O)/C=C/C(=O)O [NCGC00016710-05] | > 10 µM | > 10 µM |  |  |  |
| COc1ccc(CCN2CCC(Nc3nc4ccccc4n3Cc3ccc(F)cc3)CC2)cc1 [NCGC00016913-14] | > 10 µM | > 10 µM |  |  |  |
| O=c1oc2c(O)c(O)cc3c(=O)oc4c(O)c(O)cc1c4c23 [NCGC00017245-10] | > 10 µM | > 10 µM |  |  |  |
| Oc1ccc(/C=C/c2cc(O)cc(O)c2)cc1 [NCGC00017352-24] |  |  |  |  | IC50/EC50, VEGF_ADSC\ECFC Angio Hoechst NucArea (assay number 3) [1]: > 10 µM; IC50/EC50, VEGF_ADSC\ECFC Angio CD31 TubeArea (assay number 2) [2]: > 10 µM |
| CCOC(=O)C1=C[C@]2(CC)CCCN3CCc4c(n1c1ccccc41)[C@@H]32 [NCGC00018204-13] |  |  |  |  | IC50/EC50, VEGF_ADSC\ECFC Angio Hoechst NucArea (assay number 3) [1]: > 10 µM; IC50/EC50, VEGF_ADSC\ECFC Angio CD31 TubeArea (assay number 2) [2]: > 10 µM |
| CC(=O)Oc1cccc2c1C(=O)c1c(OC(C)=O)cc(C(=O)O)cc1C2=O [NCGC00018274-05] |  |  |  |  | IC50/EC50, VEGF_ADSC\ECFC Angio Hoechst NucArea (assay number 3) [1]: > 10 µM; IC50/EC50, VEGF_ADSC\ECFC Angio CD31 TubeArea (assay number 2) [2]: > 10 µM |
| O=C(c1ccc(F)cc1)C1CCN(CCn2c(=O)[nH]c3ccccc3c2=O)CC1 [NCGC00021146-09] | > 10 µM | > 10 µM |  |  |  |
| CCCCC(=O)O[C@H]1CC[C@H]2[C@@H]3CCc4cc(O)ccc4[C@@H]3CC[C@]12C [NCGC00022275-03] |  |  |  |  | IC50/EC50, VEGF_ADSC\ECFC Angio Hoechst NucArea (assay number 3) [1]: 8.298 µM; IC50/EC50, VEGF_ADSC\ECFC Angio CD31 TubeArea (assay number 2) [2]: > 10 µM |
| CC[C@@H]1C(=O)OC[C@@H]1Cc1cncn1C [NCGC00023339-16] | > 10 µM | > 10 µM |  |  |  |
| CCN1CCC[C@H]1CNC(=O)c1c(OC)ccc(Br)c1OC [NCGC00024870-06] | > 10 µM | > 10 µM |  |  |  |
| CC[N+](CC)(CC)CCOc1ccc(/C=C/c2ccccc2)cc1 [NCGC00025122-02] |  |  | > 10 µM | > 10 µM |  |

| SMILES | VEGF_ADSC\ECFC Angio Hoechst NucArea IC50/EC50 [1] | VEGF_ADSC\ECFC Angio CD31 TubeArea IC50/EC50 [2] | IC50 [1] | IC50 [2] | also measured |
| --- | --- | --- | --- | --- | --- |
| Oc1ccc2[nH]cc(CCCCN3CC=C(c4ccccc4)CC3)c2c1 [NCGC00025216-03] | > 10 µM | 4.0367 µM |  |  |  |
| CS(=O)(=O)O.Cc1c(O)cccc1C(=O)N[C@@H](CSc1ccccc1)[C@H](O)CN1C[C@H]2CCCC[C@H]2C[C@H]1C(=O)NC(C)(C)C [NCGC00090782-06] | > 10 µM | > 10 µM |  |  |  |
| Nc1ccc(O)cc1 [NCGC00090816-05] |  |  |  |  | IC50/EC50, VEGF_ADSC\ECFC Angio Hoechst NucArea (assay number 3) [1]: > 10 µM; IC50/EC50, VEGF_ADSC\ECFC Angio CD31 TubeArea (assay number 2) [2]: > 10 µM |
| CCCCCCCCCCCC[N+](C)(C)CCOc1ccccc1 [NCGC00091010-03] |  |  | 7.29 µM | 3.38 µM |  |
| C#C[C@]1(O)CC[C@H]2[C@@H]3CCc4cc(O)ccc4[C@H]3CC[C@@]21C [NCGC00091533-10] |  |  | > 10 µM | > 10 µM |  |
| CN(C)C(=S)SSC(=S)N(C)C [NCGC00091563-12] |  |  | > 10 µM |  |  |
| CCCCC(CC)COC(=O)C(C#N)=C(c1ccccc1)c1ccccc1 (stereo not drawn) [NCGC00091585-05] | 3.289 µM | > 10 µM |  |  |  |
| CC12CCC(CC1)C(C)(C)O2 [NCGC00091666-04] |  |  | > 10 µM | > 10 µM |  |
| O=C(O)c1ccc2[nH]cc(CCCCN3CC=C(c4ccccc4)CC3)c2c1 [NCGC00092328-02] | > 10 µM | > 10 µM |  |  |  |
| NC(=O)c1cccnc1 [NCGC00093354-05] |  |  | > 10 µM | > 10 µM |  |
| CCOc1ccc2nc3cc(N)ccc3c(N)c2c1 [NCGC00096056-02] |  |  | > 10 µM |  | IC50 (HeLa cells; assay number 14, 2N, read-out: Hela CellCycMod PI 2N summarized IC50): > 10 µM; IC50 (HeLa cells; assay number 15, S phase, read-out: Hela CellCycMod PI S Phase summarized IC50): > 10 µM; IC50 (HeLa cells; assay number 16, 4N, read-out: Hela CellCycMod PI 4N summarized IC50): > 10 µM; IC50 (HeLa cells; assay number 17, MI, read-out: Hela CellCycMod PI MI summarized IC50): > 10 µM; IC50 (HeLa cells; assay number 18, cell number, read-out: Hela CellCycMod PI Cell Number summarized IC50): 2.11 µM |
| C[C@H]1O[C@@H](O[C@H]2[C@@H](O)C[C@H](O[C@H]3[C@@H](O)C[C@H](O[C@H]4CC[C@@]5(C)[C@H](CC[C@@H]6[C@@H]5CC[C@]5(C)[C@@H](C7=CC(=O)OC7)CC[C@]65O)C4)O[C@@H]3C)O[C@@H]2C)C[C@H](O)[C@@H]1O [NCGC00142623-04] |  |  | 0.103 µM | 0.011 µM |  |
| Oc1cc(Cl)ccc1Oc1ccc(Cl)cc1Cl [NCGC00159417-05] |  |  | 8.1 µM | > 10 µM |  |
| CC(=O)Oc1ccc(C2(c3ccc(OC(C)=O)cc3)C(=O)Nc3ccccc32)cc1 [NCGC00159420-04] |  |  |  |  | IC50/EC50, VEGF_ADSC\ECFC Angio Hoechst NucArea (assay number 3) [1]: > 10 µM; IC50/EC50, VEGF_ADSC\ECFC Angio CD31 TubeArea (assay number 2) [2]: > 10 µM |
| C[C@H]1O[C@@H](O[C@H]2CC[C@@]3(C)[C@H](CC[C@@H]4[C@@H]3C[C@@H](O)[C@]3(C)[C@@H](C5=CC(=O)OC5)CC[C@]43O)C2)C[C@H](O)[C@@H]1O[C@H]1C[C@H](O)[C@H](O[C@H]2C[C@H](O)[C@H](O[C@@H]3O[C@H](CO)[C@@H](O)[C@H](O)[C@H]3O)[C@@H](C)O2)[C@@H](C)O1 [NCGC00159441-03] | 0.2987 µM | 0.0614 µM |  |  |  |
| COC1=C(OC)C(=O)C(CCCCCCCCCCO)=C(C)C1=O [NCGC00160514-02] | > 10 µM | > 10 µM |  |  |  |
| O=C(N/N=C/c1ccccc1O)c1ccncc1 [NCGC00160648-02] |  |  | > 10 µM | > 10 µM |  |
| COc1ccc(/C=N/NC(=O)c2ccncc2)cc1OC [NCGC00160656-02] |  |  | > 10 µM | > 10 µM |  |
| O=C(CCN1CCC(c2ccccc2)C1)c1ccc2c(c1)OCCO2 (stereo not drawn) [NCGC00160665-02] | > 10 µM | > 10 µM |  |  |  |
| CCCCCCCCOc1ccccc1C(=O)Nc1ccc(C(=O)OCC[N+](C)(CC)CC)cc1.[Br-] [NCGC00163507-03] | 8.466 µM | > 10 µM |  |  |  |
| O=[N+]([O-])C(Br)(CO)CO [NCGC00164057-03] |  |  | > 10 µM | > 10 µM |  |
| CC[C@H](C)C(=O)O[C@H]1C[C@H](O)C=C2C=C[C@H](C)[C@H](CC[C@@H](O)C[C@@H](O)CC(=O)O)[C@H]21 [pravastatin, reference compound] |  |  |  |  | inhibition of endothelial tube / cord formation (in words) ([2]; ECFC/ADSC co-culture): did not inhibit endothelial tube formation |
